Patent publication US20110251230A1, “THERAPEUTICS FOR NEUROLOGICAL DISORDERS” (UNIVERSITY OF SHEFFIELD, priority 2008, published 2011)
Read-outs that look alike come from different tables or passages of the source.

Key:
[1] = test system: C6 (rat) astrocytic line; experiment: C6 oxidative stress assay (serum withdrawal, DCF); conditions: for Lowest dose with toxicity: C6; for IC50: C6, 24 h pre-treatment, serum withdrawal, DCF; for Maximal % reduction in Oxidative stress: C6, DCF fluorescence
Method: A simple oxidative stress assay was used to determine whether preconditioning with NRF2-ARE inducing drugs could protect against a subsequent oxidative stress insult (serum withdrawal). The NSC34, C6 and 1321N1 cells were plated in 96 well tissue culture plates to achieve 30% confluency. […] Media was then replaced with serum free, phenol free media for 5 hrs. […] Cell survival assay was then performed on the cells as protection is measured as % reduction in DCF signal, therefore data points were excluded where a decrease in cell number was measured.
Briefly methylthiazolyldiphenyl-tetrazolium bromide (MTT) was added to the cells and a blank well to a final concentration 0.5 mg/ml and incubated at 37° C. for 1-3 hrs depending on the cell line used.

[2] = test system: NRF2-ARE pathway in the CHO 4× ARE-TK cell line; experiment: ARE reporter assay in CHO 4×ARE-TK-GFP cell line (GFP induction, EthD1 toxicity); conditions: for maximal fold induction: read-out: Average fold GFP induction at maximal response
Method: Chinese Hamster Ovary (CHO), NSC34 mouse motor neuronal cells, C6 (rat) and 1321N1 (human) astrocytic lines were routinely maintained in DMEM supplemented with 10% FBS and penicillin/streptomycin. […] These plasmids were transfected into CHO, C6 and 1321N1 cell lines using Lipofectamine 2000 (Invitrogen) and following 10-14 days of selection in 0.5 mg/ml G418 they were expanded and selected for basal eGFP expression using fluorescence activated cell sorting (BD, FACSAria) with two sequential cell sorts for each cell line. These mixed populations of stable transfectants with basal eGFP expression were used in subsequent assays and designated 4×ARE-TK-GFP for the ARE containing line and TK-GFP for the control cell line. […]
Confluent cultures of 4×ARE-TK-GFP CHO or TK-GFP CHO expressing cells in 96 or 384-well tissue-culture plates were treated with drug (0.01-100 µM in triplicate) or vehicle (0.1-1% DMSO) in FCS-free DMEM in triplicate for 24 hours. The media was removed and replaced with the same volume of PBS containing 0.3 μM EthD1. […] Non-linear regression was used to fit a sigmoidal dose-response curve on a semi-Log plot to calculate the EC50 using GraphPad Prism (GraphPad Software). The reporter assay was conducted in a similar fashion in C6 and 1321N1 astrocyte cell lines stably transfected with the 4×ARE-TK-GFP and TK-GFP constructs except that Eth D1 was added directly in the media and read prior to washing the cells once and reading the […] signal. […]
The compounds were applied in triplicate to confluent cells in 96 well plates in serum free medium for 24 hours and the induction of GFP measured in a fluorescence plate reader. […]

[3] = test system: NSC34 mouse motor neuronal cells; experiment: NSC34 oxidative stress assay (serum withdrawal, DCF); conditions: for Lowest dose with toxicity: NSC34; for Maximal % reduction in Oxidative stress: NSC34, DCF fluorescence, negative = pro-oxidant
[4] = test system: 1321N1 (human) astrocytic line; experiment: 1321N1 oxidative stress assay (serum withdrawal, DCF); conditions: for Lowest dose with toxicity: 1321N1; for Maximal % reduction in Oxidative stress: 1321N1, DCF fluorescence; for IC50: 1321N1, 24 h pre-treatment, serum withdrawal, DCF
[5] = read-out: Average EC50, CHO 4×ARE-TK-GFP, GFP induction, 24 h

| Molecule | Lowest dose with toxicity [1] | IC50 [1] [µM] | Maximal % reduction in Oxidative stress [1] [%] | Average fold GFP induction at maximal response ([2]; CHO 4×ARE-TK-GFP, 24 h) [fold] | Lowest dose with toxicity ([2]; CHO ARE reporter assay) | EC50 [2, 5] [µM] | Lowest dose with toxicity [3] | Maximal % reduction in Oxidative stress [3] [%] | Lowest dose with toxicity [4] | Maximal % reduction in Oxidative stress [4] [%] | Lowest dose with toxicity ([2]; Chinese hamster, 24 h) [µM] | EC50 ([2]; Cricetulus griseus, 24 h, read-out: Average EC50, CHO 4×ARE-TK-GFP, GFP induction, 24 h) [µM] | maximal fold induction ([2]; Cricetulus griseus, 24 h) | IC50 [4] [µM] | EC50 ([2]; Cricetulus griseus, 24 h, read-out: Average EC50) [µM] |
| --- | --- | --- | --- | --- | --- | --- | --- | --- | --- | --- | --- | --- | --- | --- | --- |
| C=CC(C1=CC(=O)C(OC)=CC1=O)c1ccccc1 (centres unmarked) [4-Methoxydalbergione] | none | 2.5 | 14 | 2.11 | 100 µM | 11 | none | −44 | none | 43 | – | – | – | – | – |
| OC[C@H]1O[C@@H](n2cnc3c(NCc4ccco4)ncnc32)[C@H](O)[C@@H]1O [kinetin riboside] | 10 µM | 3.84 | – | – | – | – | 3 µM | – | 3 µM | – | 30 | 3.39 | 1.97 | 0.246 | – |
| COC(=O)[C@H](O)[C@H]1C(C)(C)[C@H](OC(C)=O)[C@@H]2CC3=C4CC(=O)O[C@@H](c5ccoc5)[C@]4(C)CC[C@@H]3[C@@]1(C)C2=O [swietenolide 3 acetate] | none | 4.22 | 50 | 2.82 | 100 µM | 3.5 | 0.3 µM | 0 | none | 60 | – | – | – | – | – |
| CC1=CC(=O)C(C(C)C)=CC1=O [Thymoquinone] | none | – | – | – | – | – | none | – | none | – | 30 | – | 2.58 | – | – |
| O=C(CC[N+](=O)[O-])OC[C@H]1O[C@@H](O)[C@H](OC(=O)CC[N+](=O)[O-])[C@@H](OC(=O)CC[N+](=O)[O-])[C@@H]1OC(=O)CC[N+](=O)[O-] [endecaphyllin X] | none | 3.15 | 40 | 2.15 | None | 18.8 | 10 µM | 0 | none | 56 | – | – | – | – | – |
| Cc1cc(O)c(C)c(O)c1C(=O)O [3 methylorsellinic acid] | none | – | – | – | – | – | 0.3 µM | – | none | – | 100 | – | 2.87 | – | – |
| 3β hydroxydeoxydesacetoxy-7-oxogedunin | none | 3.07 | 67 | 2.55 | 30 µM | 8.71 | 3 µM | 0 | none | 62 | – | – | – | 3.96 | – |
| CC1(C)C2CC(=O)O[C@@]3(C)C4=CC(=O)O[C@@H](c5ccoc5)[C@]4(C)CCC3[C@@]2(C)C=C[C@H]1O (some centres unmarked) [Deoxyandirobin lactone] | none | – | – | – | – | – | none | – | none | – | 100 | – | 3.03 | – | – |
| O=C(/C=C/c1ccc(O)cc1)c1ccc(O)cc1O [Isoliquintigenin, Isoliquiritigenin] | none | ~28 | – | – | – | – | 1 µM | – | none | – | 30 | – | 2.58 | – | – |
| CC1(C)C(=O)C=C[C@]2(C)[C@H]3CC[C@@]4(C)[C@H](c5ccoc5)OC(=O)[C@H]5O[C@]54[C@]3(C)[C@H](O)C[C@@H]12 [Deacetylgedunin] | none | 5.36 | – | – | 30 µM | – | none | – | 10 µM | – | – | – | 3.05 | 2.37 | 3.5 |
| O=c1c2ccccc2[se]n1-c1ccccc1 [Ebselen, reference compound] | none | – | – | – | – | – | none | – | none | – | 100 | – | 2.81 | – | – |
